Experimental findings from patent publication US20180099931A1 (AbbVie S.à.r.l., priority 2016, published 2018) are described below.

The target in the assay is T1, F508delCFTR (Homo sapiens, UniProt P13569, DEL508-508).
T1 construct: expressed in transfected cells; host or cells: CFBE41o- human lung-derived epithelial cells (CFBE4lo-F508delCFTR-HRP), doxycycline-inducible
The assay can be described thus: Cell Surface Expression-Horse Radish Peroxidase (CSE-HRP) Assay.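 As to Maximum % activity (with co-corrector): co-corrector and positive control are both the same reference corrector at 2 µM.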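 As to Maximum % activity (without co-corrector): percent of the 2 µM on-plate positive control corrector response above DMSO.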 Format: cell-based. To be noted: for Maximum % activity (with co-corrector): with co-corrector (2 μM); for Maximum % activity (with co-corrector) / Emax: maximum at any tested concentration, normalized to on-plate positive control; for Emax: without co-corrector, read-out: Maximum % activity (without co-corrector).

Where [1] appears, read: test compound without co-corrector, read-out: EC50 (without co-corrector).
Where [2] appears, read: with co-corrector (2 μM of 3-[(2R,4R)-4-({[1-(2,2-difluoro-1,3-benzodioxol-5-yl)cyclopropyl]carbonyl}amino)-7-methoxy-3,4-dihydro-2H-chromen-2-yl]benzoic acid), read-out: EC50 (with co-corrector).

Where two headings read alike, the source gives them in different places. Bounds are passed on as bounds.

As a reminder, the EC50 is the concentration giving half of the maximal effect.

T1 sequence (P13569 with tags, fused parts or gaps DEL508-508): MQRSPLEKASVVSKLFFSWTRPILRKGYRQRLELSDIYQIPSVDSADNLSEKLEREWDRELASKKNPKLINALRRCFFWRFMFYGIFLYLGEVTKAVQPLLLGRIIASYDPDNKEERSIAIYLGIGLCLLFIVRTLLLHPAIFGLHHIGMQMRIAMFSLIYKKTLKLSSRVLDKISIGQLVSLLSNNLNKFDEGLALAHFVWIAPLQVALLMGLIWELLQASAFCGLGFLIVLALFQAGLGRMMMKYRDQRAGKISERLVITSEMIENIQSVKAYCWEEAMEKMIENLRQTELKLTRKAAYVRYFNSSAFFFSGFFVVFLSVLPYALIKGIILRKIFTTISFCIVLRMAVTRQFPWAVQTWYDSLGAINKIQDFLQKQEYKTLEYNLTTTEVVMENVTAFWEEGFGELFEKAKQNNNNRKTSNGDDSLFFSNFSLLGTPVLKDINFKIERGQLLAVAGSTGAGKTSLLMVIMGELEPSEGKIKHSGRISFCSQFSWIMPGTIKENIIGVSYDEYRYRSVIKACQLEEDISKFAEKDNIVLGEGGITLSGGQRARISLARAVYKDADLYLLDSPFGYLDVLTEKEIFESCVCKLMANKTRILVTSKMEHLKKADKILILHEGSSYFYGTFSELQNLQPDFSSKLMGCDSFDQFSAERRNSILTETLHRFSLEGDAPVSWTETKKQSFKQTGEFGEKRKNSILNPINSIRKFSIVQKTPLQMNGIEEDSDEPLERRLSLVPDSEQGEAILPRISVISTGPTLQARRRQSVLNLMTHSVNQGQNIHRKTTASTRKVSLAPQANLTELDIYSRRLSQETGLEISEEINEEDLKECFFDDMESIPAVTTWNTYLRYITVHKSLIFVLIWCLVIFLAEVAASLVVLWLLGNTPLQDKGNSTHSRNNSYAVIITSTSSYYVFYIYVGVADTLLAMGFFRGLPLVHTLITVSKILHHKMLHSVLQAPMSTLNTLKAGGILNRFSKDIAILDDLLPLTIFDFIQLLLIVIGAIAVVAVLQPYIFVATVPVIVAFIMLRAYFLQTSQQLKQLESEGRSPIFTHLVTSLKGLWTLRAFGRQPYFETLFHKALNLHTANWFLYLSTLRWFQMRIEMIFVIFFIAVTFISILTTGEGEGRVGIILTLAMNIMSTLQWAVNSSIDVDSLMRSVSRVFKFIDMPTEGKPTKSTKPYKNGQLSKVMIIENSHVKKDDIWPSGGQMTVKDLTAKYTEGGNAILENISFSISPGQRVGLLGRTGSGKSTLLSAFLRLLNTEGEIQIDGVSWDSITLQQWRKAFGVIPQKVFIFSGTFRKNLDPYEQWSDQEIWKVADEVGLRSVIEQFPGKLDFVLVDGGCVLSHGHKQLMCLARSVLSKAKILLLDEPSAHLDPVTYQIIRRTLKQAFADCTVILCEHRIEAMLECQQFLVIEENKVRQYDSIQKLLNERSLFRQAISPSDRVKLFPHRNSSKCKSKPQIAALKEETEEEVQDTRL

`COc1ncc(C2CCC2)cc1CN[C@H]1[C@H](C(C)(C)C)[C@@H](C(=O)O)N(C(=O)[C@@H]2CCCC(F)(F)C2)[C@H]1c1ccccc1` [Example 69, (2S,3S,4S,5S)-3-tert-butyl-4-{[(5-cyclobutyl-2-methoxypyridin-3-yl)methyl]amino}-1-[(1R)-3,3-difluorocyclohexane-1-carbonyl]-5-phenylpyrrolidine-2-carboxylic acid]: the “Maximum % activity (with co-corrector)” value was “+++ (≥350)” and the Emax is greater than 200%. Further, under setting [1], the EC50 is less than 1000 nM. Further, under setting [2], the EC50 is less than 1000 nM.
As for `COc1nc(C(C)(C)C)ccc1CN[C@H]1[C@H](C23CC(C2)C3)[C@@H](C(=O)O)N(C(=O)OC(C)C)[C@H]1c1ccccc1` [Example 70, (2S,3S,4S,5S)-3-(bicyclo[1.1.1]pentan-1-yl)-4-{[(6-tert-butyl-2-methoxypyridin-3-yl)methyl]amino}-5-phenyl-1-{[(propan-2-yl)oxy]carbonyl}pyrrolidine-2-carboxylic acid], the “Maximum % activity (with co-corrector)” value is on record as “+++ (≥350)” and the Emax fell in the range of 100 to 200%. Also, the EC50 under setting [1] was in the range of 1000 to 10000 nM. For the same molecule, the EC50 under setting [2] lay in the range of 1000 to 10000 nM.
Turning to `COc1ccc(C(C)(C)C)cc1CN[C@H]1[C@H](C23CC(C2)C3)[C@@H](C(=O)O)N(C(=O)OC(C)C)[C@H]1c1cccnc1N(C)C` [Example 71, (2S,3S,4S,5S)-3-(bicyclo[1.1.1]pentan-1-yl)-4-{[(5-tert-butyl-2-methoxyphenyl)methyl]amino}-5-[2-(dimethylamino)pyridin-3-yl]-1-{[(propan-2-yl)oxy]carbonyl}pyrrolidine-2-carboxylic acid], the “Maximum % activity (with co-corrector)” value was “+++ (≥350)” and the Emax is greater than 200%. Further, the EC50 under setting [1] was in the range of 1000 to 10000 nM. Further, the EC50 under setting [2] lay within 1000 to 10000 nM.
As for `COc1ncc(C2CCC2)cc1CN[C@H]1[C@H](C(C)(C)C)[C@@H](C(=O)O)N(C(=O)[C@H]2CCCCO2)[C@H]1c1ccccc1C(C)C` [Example 72, (2S,3S,4S,5S)-3-tert-butyl-4-{[(5-cyclobutyl-2-methoxypyridin-3-yl)methyl]amino}-1-[(2R)-oxane-2-carbonyl]-5-[2-(propan-2-yl)phenyl]pyrrolidine-2-carboxylic acid], the “Maximum % activity (with co-corrector)” value is given as “+++ (≥350)” and the Emax was greater than 200%. Also, the EC50 under setting [1] lay within 1000 to 10000 nM. The EC50 under setting [2] is less than 1000 nM.
As to `COc1ncc(C2CCC2)cc1CN[C@H]1[C@H](C(C)(C)C)[C@@H](C(=O)O)N(C(=O)[C@@H]2CCCCO2)[C@H]1c1ccccc1C(C)C` [Example 73, (2S,3S,4S,5S)-3-tert-butyl-4-{[(5-cyclobutyl-2-methoxypyridin-3-yl)methyl]amino}-1-[(2S)-oxane-2-carbonyl]-5-[2-(propan-2-yl)phenyl]pyrrolidine-2-carboxylic acid], the “Maximum % activity (with co-corrector)” value is “+++ (≥350)” and the Emax was greater than 200%. Further, the EC50 under setting [1] is less than 1000 nM. Besides, the EC50 under setting [2] is less than 1000 nM.
Take `COc1cc(C(F)(F)F)ccc1CN[C@H]1[C@H](C(C)(C)C)[C@@H](C(=O)O)N(C(=O)[C@@H]2CCCC(F)(F)C2)[C@H]1c1ccccc1` [Example 75, (2S,3S,4S,5S)-3-tert-butyl-1-[(1R)-3,3-difluorocyclohexane-1-carbonyl]-4-({[2-methoxy-4-(trifluoromethyl)phenyl]methyl}amino)-5-phenylpyrrolidine-2-carboxylic acid]: the “Maximum % activity (with co-corrector)” value is on record as “+++ (≥350)” and the Emax is greater than 200%. Besides, under setting [1], the EC50 lay within 1000 to 10000 nM. In addition, the concentration for a half-maximal effect (EC50) under setting [2] was less than 1000 nM.
As to `COc1ccc(C(C)(C)C)cc1CN[C@H]1[C@H](C23CC(C2)C3)[C@@H](C(=O)O)N(C(=O)OC(C)C)[C@H]1c1cccnc1OC` [Example 76, (2S,3S,4S,5S)-3-(bicyclo[1.1.1]pentan-1-yl)-4-{[(5-tert-butyl-2-methoxyphenyl)methyl]amino}-5-(2-methoxypyridin-3-yl)-1-{[(propan-2-yl)oxy]carbonyl}pyrrolidine-2-carboxylic acid], the “Maximum % activity (with co-corrector)” value is “+++ (≥350)” and the Emax was 100 to 200%. The EC50 under setting [1] lay within 1000 to 10000 nM. In addition, the EC50 under setting [2] is 1000 to 10000 nM.
Turning to `COc1ncc(C(F)(F)F)cc1CN[C@H]1[C@H](C(C)(C)C)[C@@H](C(=O)O)N(C(=O)OC(C)C)[C@H]1c1ccccc1C(C)C` [Example 77, (2S,3S,4S,5S)-3-tert-butyl-4-({[2-methoxy-5-(trifluoromethyl)pyridin-3-yl]methyl}amino)-1-{[(propan-2-yl)oxy]carbonyl}-5-[2-(propan-2-yl)phenyl]pyrrolidine-2-carboxylic acid], the “Maximum % activity (with co-corrector)” value is reported as “+++ (≥350)” and the Emax was greater than 200%. Also, the EC50 under setting [1] is 1000 to 10000 nM. Further, under setting [2], the EC50 lay within 1000 to 10000 nM.
Turning to `COc1ccc(C(F)(F)F)cc1CN[C@H]1[C@H](C(C)(C)C)[C@@H](C(=O)O)N(C(=O)OC(C)C)[C@H]1c1cccnc1OC(C)C` [Example 78, (2S,3S,4S,5S)-3-tert-butyl-4-({[2-methoxy-5-(trifluoromethyl)phenyl]methyl}amino)-1-{[(propan-2-yl)oxy]carbonyl}-5-{2-[(propan-2-yl)oxy]pyridin-3-yl}pyrrolidine-2-carboxylic acid], the “Maximum % activity (with co-corrector)” value is “+++ (≥350)” and the Emax was greater than 200%. Besides, the EC50 under setting [1] lay in the range of 1000 to 10000 nM. Further, the EC50 under setting [2] was 1000 to 10000 nM.
For `COc1ncc(C(F)(F)F)cc1CN[C@H]1[C@H](C(C)(C)C)[C@@H](C(=O)O)N(C(=O)OC(C)C)[C@H]1c1cccnc1OC(C)C` [Example 79, (2S,3S,4S,5S)-3-tert-butyl-4-({[2-methoxy-5-(trifluoromethyl)pyridin-3-yl]methyl}amino)-1-{[(propan-2-yl)oxy]carbonyl}-5-{2-[(propan-2-yl)oxy]pyridin-3-yl}pyrrolidine-2-carboxylic acid], the “Maximum % activity (with co-corrector)” value is on record as “+++ (≥350)” and the Emax is greater than 200%. Moreover, the EC50 under setting [1] was in the range of 1000 to 10000 nM. Moreover, the EC50 under setting [2] fell in the range of 1000 to 10000 nM.
As for `COc1ccc(C2(C)CCC2)cc1CN[C@H]1[C@H](C(C)(C)C)[C@@H](C(=O)O)N(C(=O)OC(C)C)[C@H]1c1cccnc1N(C)C` [Example 80, (2S,3S,4S,5S)-3-tert-butyl-5-[2-(dimethylamino)pyridin-3-yl]-4-({[2-methoxy-5-(1-methylcyclobutyl)phenyl]methyl}amino)-1-{[(propan-2-yl)oxy]carbonyl}pyrrolidine-2-carboxylic acid], the “Maximum % activity (with co-corrector)” value is given as “+++ (≥350)” and the Emax is greater than 200%. Also, under setting [1], the EC50 was 1000 to 10000 nM. Also, the EC50 under setting [2] lay in the range of 1000 to 10000 nM.
For the molecule `COc1cc(C(F)(F)F)ccc1CN[C@H]1[C@H](C(C)(C)C)[C@@H](C(=O)O)N(C(=O)OC(C)C)[C@H]1c1cccnc1OC(C)C` [Example 81, (2S,3S,4S,5S)-3-tert-butyl-4-({[2-methoxy-4-(trifluoromethyl)phenyl]methyl}amino)-1-{[(propan-2-yl)oxy]carbonyl}-5-{2-[(propan-2-yl)oxy]pyridin-3-yl}pyrrolidine-2-carboxylic acid], the “Maximum % activity (with co-corrector)” value was “+++ (≥350)” and the Emax was 100 to 200%. In addition, the EC50 under setting [1] fell in the range of 1000 to 10000 nM. Under setting [2], the EC50 is 1000 to 10000 nM.
Consider `Cc1cc(C(F)(F)F)cc(N[C@H]2[C@H](C(C)(C)C)[C@@H](C(=O)O)N(C(=O)OC(C)C)[C@H]2c2ccccc2C(C)C)n1` [Example 82, (2S,3S,4S,5S)-3-tert-butyl-4-{[6-methyl-4-(trifluoromethyl)pyridin-2-yl]amino}-1-{[(propan-2-yl)oxy]carbonyl}-5-[2-(propan-2-yl)phenyl]pyrrolidine-2-carboxylic acid], for which the “Maximum % activity (with co-corrector)” value was “++ (≥150 and <350)”; the Emax is less than 100%. Besides, under setting [1], the EC50 was in the range of 1000 to 10000 nM. For the same molecule, the EC50 under setting [2] is 1000 to 10000 nM.
In the case of `COc1ccc(C(F)(F)F)cc1CN[C@H]1[C@H](C(C)(C)C)[C@@H](C(=O)O)N(C(=O)OC(C)C)[C@H]1c1ccccc1C(C)C` [Example 83, (2S,3S,4S,5S)-3-tert-butyl-4-({[2-methoxy-5-(trifluoromethyl)phenyl]methyl}amino)-1-{[(propan-2-yl)oxy]carbonyl}-5-[2-(propan-2-yl)phenyl]pyrrolidine-2-carboxylic acid], the “Maximum % activity (with co-corrector)” value is given as “+++ (≥350)” and the Emax is greater than 200%. Under setting [1], the EC50 was in the range of 1000 to 10000 nM. Also, the EC50 under setting [2] was less than 1000 nM.
Take `COc1ncc(C(F)(F)F)cc1CN[C@H]1[C@H](C(C)(C)C)[C@@H](C(=O)O)N(C(=O)[C@@H]2CCCCO2)[C@H]1c1ccccc1C(C)C` [Example 84, (2S,3S,4S,5S)-3-tert-butyl-4-({[2-methoxy-5-(trifluoromethyl)pyridin-3-yl]methyl}amino)-1-[(2S)-oxane-2-carbonyl]-5-[2-(propan-2-yl)phenyl]pyrrolidine-2-carboxylic acid]: the “Maximum % activity (with co-corrector)” value is “+++ (≥350)” and the Emax was greater than 200%. The EC50 under setting [1] is less than 1000 nM. Further, the EC50 under setting [2] was less than 1000 nM.
Turning to `COc1ncc(C(F)(F)F)cc1CN[C@H]1[C@H](C(C)(C)C)[C@@H](C(=O)O)N(C(=O)[C@H]2CCCCO2)[C@H]1c1ccccc1C(C)C` [Example 85, (2S,3S,4S,5S)-3-tert-butyl-4-({[2-methoxy-5-(trifluoromethyl)pyridin-3-yl]methyl}amino)-1-[(2R)-oxane-2-carbonyl]-5-[2-(propan-2-yl)phenyl]pyrrolidine-2-carboxylic acid], the “Maximum % activity (with co-corrector)” value is “+++ (≥350)” and the Emax was greater than 200%. In addition, the EC50 under setting [1] lay in the range of 1000 to 10000 nM. Besides, the EC50 under setting [2] is less than 1000 nM.
